Consider 15 compounds from patent US6730669B2, “Amino acid hydroxyethylamino sulfonamide retroviral protease inhibitors” (G. D. Searle & Co., priority 1995, dated 2004).

One assay deals with T1, HIV protease (Human immunodeficiency virus type 1 group M subtype B, UniProt P04585).
T1 construct: HIV protease is diluted in the assay buffer to a final enzyme concentration of 12.3 nanomolar, based on a molecular weight of 10,780
Nature of the assay: HIV protease enzyme assay (fluorescence, substrate 2-Ile-Nle-Phe(p-NO2)-Gln-ArgNH2). It is filed as biochemical. As to conditions: 12.3 nanomolar enzyme, pH 6.4. Here is the method:
The compounds of the present invention are effective HIV protease inhibitors. Utilizing an enzyme assay as described below, the compounds set forth in the examples herein disclosed inhibited the HIV enzyme. […] The enzyme method is described below. The substrate is 2-Ile-Nle-Phe(p-NO2)-Gln-ArgNH2. The positive control is MVT-101 (Miller, M. et al, Science, 246, 1149 (1989)] The assay conditions are as follows:
20 mM sodium phosphate, pH 6.4
The above described substrate is dissolved in DMSO, then diluted 10 fold in assay buffer. Final substrate concentration in the assay is 80 μM. HIV protease is diluted in the assay buffer to a final enzyme concentration of 12.3 nanomolar, based on a molecular weight of 10,780.
The final concentration of DMSO is 14% and the final concentration of glycerol is 18%. The test compound is dissolved in DMSO and diluted in DMSO to 10× the test concentration; 10 μl of the enzyme preparation is added, the materials mixed and then the mixture is incubated at ambient temperature for 15 minutes. The enzyme reaction is initiated by the addition of 40 μl of substrate. The increase in fluorescence is monitored at 4 time points (0, 8, 16 and 24 minutes) at ambient temperature. Each assay is carried out in duplicate wells.

A further assay deals with HIV-1. Nature of the assay: CEM cell assay: HIV inhibition assay of acutely infected cells (tetrazolium based colorimetric, MTT). The following applies: Human immunodeficiency virus 1, CCRF-CEM, 168 h; Table 21; CEM cells acutely infected with HIV-1, 7 days, MTT readout. Here is the method:
The effectiveness of various compounds were determined in the above-described enzyme assay and in a CEM cell assay. The HIV inhibition assay method of acutely infected cells is an automated tetrazolium based colorimetric assay essentially that reported by Pauwles et al, J. Virol. Methods, 20, 309-321 (1988). Assays were performed in 96-well tissue culture plates. CEM cells, a CD4+cell line, were grown in RPMI-1640 medium (Gibco) supplemented with a 10% fetal calf serum and were then treated with polybrene (2 μg/ml). An 80 μl volume of medium containing 1×10^4 cells was dispensed into each well of the tissue culture plate. To each well was added a 100 μl volume of test compound dissolved in tissue culture medium (or medium without test compound as a control) to achieve the desired final concentration and the cells were incubated at 37° C. for 1 hour. A frozen culture of HIV-1 was diluted in culture medium to a concentration of 5×10^4 TCID50 per ml (TCID50=the dose of virus that infects 50% of cells in tissue culture), and a 20 μL volume of the virus sample (containing 1000 TCID50 of virus) was added to wells containing test compound and to wells containing only medium (infected control cells). Several wells received culture medium without virus (uninfected control cells). Likewise, the intrinsic toxicity of the test compound was determined by adding medium without virus to several wells containing test compound. In summary, the tissue culture plates contained the following experiments:
In experiments 2 and 4 the final concentrations of test compounds were 1, 10, 100 and 500 μg/ml. Either azidothymidine (AZT) or dideoxyinosine (ddI) was included as a positive drug control. […] DMSO was added to all control wells at an appropriate concentration.
Following the addition of virus, cells were incubated at 37° C. in a humidified, 5% CO2 atmosphere for 7 days. Test compounds could be added on days 0, 2 and 5 if desired. On day 7, post-infection, the cells in each well were resuspended and a 100 μl sample of each cell suspension was removed for assay. A 20 μL volume of a 5 mg/ml solution of 3-(4,5-dimethylthiazol-2-yl)-2,5-diphenyltetrazolium bromide (MTT) was added to each […] cell suspension, and the cells were incubated for 4 hours at […] in a 5% CO2 environment. […] To each sample was added 100 μl of 10% sodium dodecylsulfate in 0.01 N HCl to lyse the cells, and samples were incubated overnight. The absorbance at 590 nm was determined for each sample using a Molecular Devices microplate reader. Absorbance values for each set of wells is compared to assess viral control infection, uninfected control cell response as well as test compound by cytotoxicity and antiviral efficacy.

pEC50, pIC50: −log10 of the molar value.

With `CC(C)CN(C[C@@H](O)[C@H](Cc1ccccc1)NC(=O)[C@@H](NC(=O)CN1CCCC1)C(C)(C)C)S(=O)(=O)c1ccc2c(c1)OCO2` [Entry 1], the pIC50 (in general, the negative decadic logarithm of the IC50, by convention in mol/L) against HIV protease (Table 21, 80 μM substrate) is 8.52. Moreover, the pEC50 – broadly, the negative decadic logarithm of the EC50, by convention in mol/L – in the assay with HIV-1 was 8.15. `CCC(C)[C@H](NC(=O)CN1CCCC1)C(=O)N[C@@H](Cc1ccccc1)[C@H](O)CN(CC(C)C)S(=O)(=O)c1ccccc1` (stereo partly shown) [Entry 1] gave a pIC50 at HIV protease (Table 20, 80 μM substrate) of 8.40. On to `CCC(C)[C@H](NC(=O)CN1CCCC1)C(=O)N[C@@H](Cc1ccccc1)[C@H](O)CN(CC(C)C)S(=O)(=O)c1ccc2c(c1)CCO2` (stereo partly shown) [Entry 2], for which, on HIV protease (Table 20, 80 μM substrate), the pIC50 was 8.70. Against the preceding compound, the pIC50 is 0.30 log units higher. In turn, `CCC(C)[C@H](NC(=O)CN1CCCC1)C(=O)N[C@@H](Cc1ccccc1)[C@H](O)CN(CC(C)C)S(=O)(=O)c1ccc2c(c1)OCO2` (stereo partly shown) [Entry 2] showed a pIC50 at HIV protease (Table 21, 80 μM substrate) of 8.52. For the same compound, the negative-log EC50 (pEC50) in the assay on HIV-1 was 7.92.

On HIV protease (Table 21, 80 μM substrate), `CC(C)CN(C[C@@H](O)[C@H](Cc1ccccc1)NC(=O)[C@H](CS(C)(=O)=O)NC(=O)CN1CCCC1)S(=O)(=O)c1ccc2c(c1)OCO2` [Entry 3] showed a pIC50 of 8.10. This compound showed a pEC50 with HIV-1 of 6.92. For the compound `CC(C)CN(C[C@@H](O)[C@H](Cc1ccccc1)NC(=O)[C@@H](NC(=O)CN1CCCC1)C(C)(C)C)S(=O)(=O)c1ccccc1` [Entry 4], the pIC50 at HIV protease (Table 21, 80 μM substrate) is 8.40. The pEC50 in the assay with HIV-1 was 7.92.

On HIV protease (Table 21, 80 μM substrate), `COc1ccc(S(=O)(=O)N(CC(C)C)C[C@@H](O)[C@H](Cc2ccccc2)NC(=O)[C@@H](NC(=O)CN2CCCC2)C(C)(C)C)cc1` [Entry 5] had a pIC50 of 8.52. For the same compound, the pEC50 in the assay with HIV-1 was 8.30. The corresponding values for `CC(C)CN(C[C@@H](O)[C@H](Cc1ccccc1)NC(=O)[C@@H](NC(=O)CN1CCCC1)C(C)C)S(=O)(=O)c1ccc2c(c1)OCO2` [Entry 6] are 8.52 and 8.22. `COC(=O)Nc1nc2cc(S(=O)(=O)N(CC(C)C)C[C@@H](O)[C@H](Cc3ccccc3)NC(=O)[C@@H](NC(=O)CN3CCCC3)C(C)(C)C)ccc2[nH]1` [Entry 7] showed a pIC50 at HIV protease (Table 21, 80 μM substrate) of 8.70. The compound further showed a negative logarithm of the EC50 (pEC50) in the assay with HIV-1 of 7.54. As for `CC(C)CN(C[C@@H](O)[C@H](Cc1ccccc1)NC(=O)[C@@H](NC(=O)CN1CCCC1)C(C)(C)C)S(=O)(=O)c1ccc2ncsc2c1` [Entry 8], the pIC50 against HIV protease (Table 21, 80 μM substrate) was 8.52. Further, the pEC50 in the assay on HIV-1 is 7.80. The corresponding values for `CCC(C)[C@H](NC(=O)CN1CCCC1)C(=O)N[C@@H](Cc1ccccc1)[C@H](O)CN(CC(C)C)S(=O)(=O)c1ccc(OC)cc1` (stereo partly shown) [Entry 9] are 8.52 and 7.80. The corresponding values for `CC(C)CN(C[C@@H](O)[C@H](Cc1ccccc1)NC(=O)[C@@H](NC(=O)CN1CCCC1)C(C)(C)S(C)(=O)=O)S(=O)(=O)c1ccc2c(c1)OCO2` [Entry 10] are 8.40 and 7.41.

Consider `CC(C)CN(C[C@@H](O)[C@H](Cc1ccccc1)NC(=O)[C@@H](NC(=O)CN1CCCC1)C(C)(C)C)S(=O)(=O)c1ccc2c(c1)CCO2` [Entry 11], for which the pIC50 against HIV protease (Table 21, 80 μM substrate) is 8.40. In addition, the pEC50 with HIV-1 is 7.68. The compound `C#CC[C@H](NC(=O)CN1CCCC1)C(=O)N[C@@H](Cc1ccccc1)[C@H](O)CN(CC(C)C)S(=O)(=O)c1ccc2c(c1)OCO2` [Entry 12] showed a pIC50 against HIV protease (Table 21, 80 μM substrate) of 8.70. This compound also had a pEC50 in the assay with HIV-1 of 7.96. The corresponding values for `COc1ccc(S(=O)(=O)N(CC(C)C)C[C@@H](O)[C@H](Cc2ccccc2)NC(=O)[C@@H](NC(=O)CN2CCCC2)C(C)C)cc1` [Entry 13] are 8.52 and 7.74.
